Experimental data taken from patent US20200362314A1, “METHODS TO PRODUCE ADULT-LIKE CARDIOMYOCYTES DERIVED FROM INDUCED PLURIPOTENT STEM CELLS FOR DRUG DISCOVERY” (THE REGENTS OF THE UNIVERSITY OF COLORADO, A BODY CORPORATE, priority 2019, published 2020).
Entries after “also recorded” stand apart in the source; their conditions may differ. Marks after values point to notes of the source that are not given here.

Assays:
[1] = test system: hiPSC-CMs; experiment: Hypertrophic response (cell area) of hiPSC-CMs; type: cell-based, human; settings: for increase in cell area: vs vehicle
Experimental: Panels A-B show an image and graph, respectively, depicting hiPSC-CMs cultured under indication conditions and treated with vehicle, 10 μM phenylephrine (PE) or 10 μM PE and 1 μM JQ-1 (a BET Bromodomain inhibitor) for 48 hours, then fixed and stained for α-actinin (green) and Hoescht 3342 (blue). Representative images are shown in panel A. Cell area of hiPSC-CMs were quantified in panel B. Cell areas measured on 616-789 cardiomyocytes pooled from four independent inductions. Panel C is a graph depicting qPCR for B-type natriuretic peptide, normalized to 18S rRNA and shown as fold change relative to GLUC, from cDNA prepared from four independent inductions. Panels D-F depict data showing characterization of cardiac hypertrophy in Danon hiPSC-CMs under various culture conditions, and their comparison to the hypertrophy observed in human patients. In Panel D, hypertrophy (as assessed by left ventricular posterior wall thickness, LVPW) in the hearts of human patients is shown. […] Cell areas measured on 356-1056 cardiomyocytes pooled from two independent inductions. *, **, **** p<0.05, 0.01, 0.0001, Kruskal-Wallis test followed by Dunn's multiple comparison test (B,D) or one way ANOVA followed by Tukey's multiple comparison test on log2 transformed data (C).
Cell imaging studies: Cells on small unpatterned or patterned surfaces in 24 well plates were used for immunofluorescent staining. Briefly, cells were washed with PBS, then fixed either with 4% paraformaldehyde (PFA) in PBS (10 minutes at room temperature) or a 1:1 mixture of methanol and acetone (5minutes at -20° C.). After fixation, cells were washed with PBS, then permeabilized with 0.2% Triton-X 100 in PBS (10 minutes at room temperature). Methanol/acetone fixation was used for images shown in FIG. 1 (staining for α-actinin, MYBPC3, c-TNI, and MLC-2V). PFA fixation was used for all other experiments. All measurements of cell area and hypertrophy were conducted on PFA fixed cells.
For cell area measurements, cells were PFA fixed and stained for α-actinin as described above, then counterstained with HCS CellMask™ Orange (Thermo Fisher Scientific, Waltham, Mass.), diluted 1:2, 500 in PBS, for 30 minutes at room temperature.
All imaging was conducted on an EVOS FL Cell Imaging System (Thermo Fisher Scientific, Waltham, MA). All image analysis including measurements of cell area, circularity, and sarcomere length were conducted using Image J.

[2] = test system: adult mouse ventricular cardiomyocytes (AMVCMs); experiment: Hypertrophic response (cell area) of adult mouse ventricular cardiomyocytes; type: cell-based
Experimental: (§1) Panels A-B show representative images of BNP staining and quantification of BNP and pro-NT-BNP-positive hiPSC-CMs cultured and treated as described in FIGS. 12A-B. Panels C-D show representative brightfield images and cell area of AMVCMs under indicated conditions. AMVCMs were isolated from 8-12 week old adult mice then treated with vehicle, 10 μM phenylephrine (PE) or 10 μM PE and 1 μM JQ-1 for 72 hours, then fixed. **** p<0.0001, Kruskal-Wallis test followed by Dunn's multiple comparison test. Cell areas measured on 664-706 cardiomyocytes pooled from four separate cardiomyocyte isolations.
Cardiomyocyte Isolation: 15 minutes prior to beginning isolation, mice were injected with 300 μL of heparin (10,000 units/mL). Mice were then anesthetized via inhalation of isofluorane, and when becoming unresponsive to toe pinch were killed via cervical dislocation. The chest was then opened, and the heart was removed rapidly and placed in ice-cold perfusion buffer (10 mM creatine monohydrate, 30 mM Taurine, 5.6 mM Dglucose, 4.6 mM NaHCO3, 10 mM BDM, 120 mM NaCl, 15 mM KCl, 0.6 mM Na2HPO4, 0.6 mM KH2PO4, 1.2 mM MgSO4, 10 mM Hepes, filtered at 0.40 μm, pH 7.4). The heart was washed briefly in perfusion buffer, and excess fat/thymus tissue trimmed off. […] Cells were then inspected and counted, and if <60% of myocytes were rod-shaped (viable) the cells were not used for experimentation. […]

[3] = test system: myofibrils from MPAT hiPSC-CMs; experiment: Myofibril mechanics of MPAT hiPSC-CMs; type: cell-based, human
Source text: FIG. 13 is graphs showing results that indicate that phenylephrine treatment induces changes in myofibril relaxation which are similar to those observed in human hypertrophic cardiomyopathy. […] Myofibrils were isolated from 4 donor and 4 HCM hearts, with at least 6 myofibrils isolated per heart. […] 44-45 myofibrils isolated per condition, pooled from 3 independent inductions. Complete tables of myofibril data from these experiments are available in Tables 4 and 5. *, **, **** p<0.05, 0.01, 0.0001, Student's t test on log2-transformed data.
To isolate myofibrils from adult mouse cardiomyocytes and stem cell derived cardiomyocytes, cells were lysed and myofibrils prepared using an adaption from a recently described method. In brief, cells were lysed in relaxing solution with protease inhibitors and 20% (w/vol) sucrose, using a scraper. The lysed cell solution was then transferred into a microfuge tube and incubated on ice for 10 minutes with periodic vortexing. The cell/myofibril solution was then centrifuged at 1,500 g for 5 minutes at 4° C., and the cell/myofibril pellet resuspended in fresh relaxing solution with protease inhibitors. This process was repeated twice to remove any residual sucrose, and the cell/myofibril solution was then homogenized.
Myofibril mechanics were quantified using the fast solution switching technique on a custom-built experimental rig. Myofibril suspensions were plated onto a temperature controlled glass coverslip (15° C.) containing relaxing solution. Single myofibrils and myofibril bundles were then picked up from the surface of this coverslip and mounted between two glass micro-tools. One tool, the stretcher, was linked to a motor which could produce rapid changes in length (Mad City Labs, Madison, Wis.), while the second tool was a calibrated cantilevered force probe (6-8 μm/μN; frequency response 2-5 KHz), which was colored with black ink to increase probe sensitivity. After mounting myofibrils between microtools, they were stretched to 5-10% above slack myofibril length. Average sarcomere lengths and myofibril diameters were measured using ImageJ software. Mounted myofibrils were then activated and relaxed by rapidly changing the position of a double-barreled pipette simultaneously releasing activating solution (pCa 4.5) and relaxing solution (pCa 9.0) from each barrel. By rapidly changing the position of the pipette, the mounted myofibril could be induced to activate and relax. From the activation/relaxation trace produced, the following parameters were acquired: resting tension, the passive tension produced in relaxing conditions, induced by a push on the stretcher; maximum tension (mN/mm2), the greatest level of active tension generated by the myofibril at full calcium activation (pCa 4.5); activation kinetics (kAct), the rate constant of tension development following myofibril activation; reactivation kinetics (kTr), the rate constant of tension redevelopment following myofibril release/stretch to break cross bridges; slow phase relaxation kinetics (kREL,SLOVV), the kinetics of the initial slow/linear phase of myofibril relaxation, slow phase relaxation time (TLIN), the duration of the slow phase of relaxation, from the switching of the pipette to relaxing solution to the beginning of the fast phase of relaxation; fast phase relaxation kinetics (kREL,FAST), the rate constant of the fast (exponential) phase of relaxation.

[4] = test system: adult rat cardiac (ARVM) myofibrils; settings: 48 hours of PE treatment; cited from earlier work
[5] = test system: adult cardiomyocytes; settings: in vitro, typical response; cited from earlier work
[6] = test system: neonatal cardiomyocytes; settings: in vitro; cited from earlier work
[7] = test system: myofibrils from AMVCMs; experiment: Myofibril mechanics of AMVCMs; type: cell-based, mouse
Experimental: Myofibril mechanics data from AMVCMs isolated from 8-12 week old adult mice and treated with vehicle or 10 μM PE for 72 hours before myofibril isolation. Note that rodent myofibrils display profoundly faster kinetics of both activation and relaxation at baseline compared to myofibrils from human hiPSC-CMs and cardiac tissue. *, p<0.05, Student t test. 21-26 myofibrils were isolated from three separate cardiomyocyte isolations. A complete table of myofibril mechanics data on AMVCMs can be seen in Table 6.
Cardiomyocyte Isolation: 15 minutes prior to beginning isolation, mice were injected with 300 μL of heparin (10,000 units/mL). Mice were then anesthetized via inhalation of isofluorane, and when becoming unresponsive to toe pinch were killed via cervical dislocation. The chest was then opened, and the heart was removed rapidly and placed in ice-cold perfusion buffer (10 mM creatine monohydrate, 30 mM Taurine, 5.6 mM Dglucose, 4.6 mM NaHCO3, 10 mM BDM, 120 mM NaCl, 15 mM KCl, 0.6 mM Na2HPO4, 0.6 mM KH2PO4, 1.2 mM MgSO4, 10 mM Hepes, filtered at 0.40 μm, pH 7.4). The heart was washed briefly in perfusion buffer, and excess fat/thymus tissue trimmed off. The aorta was then cannulated using a blunted 20-gauge needle, and was mounted on a Langendorff apparatus (Radnoti, Covina, Calif.) with a heating pump kept at 37° C. for the duration of the isolation (VWR International, Radnor, Pa.). Hearts were mounted on the Langendorff apparatus within 3-7 minutes of removing from the body. The heart was then perfused in retrograde fashion at a rate of 4 mL/minute, driven by a Rainin™ Rabbit peristaltic pump (Mettler Toledo, Columbus, Ohio). To remove blood from the heart's vessels, it was first perfused for 3 min using perfusion buffer. Buffer was then switched to calcium-free digestion buffer (perfusion buffer with 1.3 mg/mL collagenase II) for 3 min and was then switched to digestion buffer supplemented with […] CaCl2. Hearts were perfused with high-calcium digestion buffer for another 6 to 10 minutes, once the heart became extremely soft and compliant. The heart was then removed from the cannulating needle and placed in a 60 mm culture dish with 2.5 mL high-calcium digestion buffer. The atria and right ventricle were then removed, and the left ventricle dissociated using a pipette and forceps. Once the heart was completely dissociated, digestion was halted by the addition of 7.5 mL stopping buffer (perfusion buffer with 10% (vol/vol) FBS and […] CaCl2). The cardiomyocyte suspension was then filtered through 200-μm mesh into a 50-mL conical tube, and the culture dish washed with an additional 10 mL stopping buffer, which was then filtered into the conical tube as well. This cell suspension was then allowed to incubate for 10 minutes at room temperature, allowing a cardiomyocyterich pellet to form. The fibroblast-rich supernatant was discarded, while the pellet with was resuspended in 10 mL of stopping buffer. 100 mM CaCl2 solution was then added to this buffer in a stepwise manner, with 2-min intervals between each addition: calcium concentration was first increased to 112.5 μmol/L, then to 312.5 μmol/L, then 712.5 μmol/L, and finally to 1.4 mmol/L. The cell suspension was then centrifuged at 1,000×g for 3 min at room temperature. Cells were then inspected and counted, and if <60% of myocytes were rod-shaped (viable) the cells were not used for experimentation. Cardiomyocytes were then resuspended in plating medium [perfusion buffer with 2.5% (vol/vol) FBS, 1% (vol/vol) penicillin/streptomycin (P/S), and 1.4 mM CaCl2, and plated on either 6 well plates (for myofibril mechanics) or 24 well plates (for hypertrophy imaging) coated with 9-10 μg/mL Laminin. […]

[8] = test system: hiPSC-CMs; experiment: BNP / pro-NT-BNP immunofluorescent staining of hiPSC-CMs; type: cell-based, human; settings: GLUC hiPSC-CMs; 10 μM PE, 48 hours
Experimental: as §1
For B-type natriuretic peptide (BNP) staining, an adaption of a previously published method was used: cells were PFA fixed, then blocked and permeabilized for 30 minutes with 5% milk/0.1% Triton X-100/PBS (blocking solution) for 30 minutes at room temperature. Cells were then incubated with pro-BNP antibody diluted in blocking solution overnight at 4° C. Cells were then washed four times in 0.05% Triton-X 100/PBS for 5 minutes, and incubated with secondary antibody diluted in blocking solution for hour at room temperature. Cells were then washed twice in 0.05% Triton-X 100/PBS for 5 minutes, counterstained with Hoescht 3342 as described above, and washed twice more.
All imaging was conducted on an EVOS FL Cell Imaging System (Thermo Fisher Scientific, Waltham, MA). […]

[9] = MPAT hiPSC-CMs, 10 μM PE, 48 hours, mean ± SEM

## Cc1sc2c(c1C)C(c1ccc(Cl)cc1)=N[C@@H](CC(=O)OC(C)(C)C)c1nnc(C)n1-2 [JQ-1]
[1]; GLUC hiPSC-CMs, 10 μM PE and 1 μM JQ-1, 48 hours
  effect on cell area: profoundly reduced cell area; also recorded: reduced cell area significantly beyond baseline
[1]; MM hiPSC-CMs, 10 μM PE and 1 μM JQ-1, 48 hours
  reduction of cell area relative to PE-treated cells: 17%
[1]; MPAT hiPSC-CMs, 10 μM PE and 1 μM JQ-1, 48 hours
  reduction of cell area relative to PE-treated cells: 31%
[2]; 10 μM PE and 1 μM JQ-1, 72 hours
  decrease in cell area: 11%

## CNC[C@H](O)c1cccc(O)c1 [PE, phenylephrine]
[3]; [9]
  Max. tens.: 44.04 ± 5.05 mN/mm^2
  Rest. tens.: 6.15 ± 0.90 mN/mm^2
  kACT: 1.03 ± 0.08 s⁻¹
  kREL, FAST: 8.64 ± 0.77* s^−1
  kREL, SLOW: 0.58 ± 0.12 s⁻¹
  kTR: 0.80 ± 0.06 s⁻¹
  tLIN: 113.6 ± 6.2**** mSec
[3]; hiPSC-CMs, PE vs vehicle (Table 5)
  shortening of linear phase of relaxation: more than 80 msec
[1]; MM hiPSC-CMs, 10 μM PE, 48 hours
  increase in cell area: 29%
[1]; MPAT hiPSC-CMs, 10 μM PE, 48 hours
  increase in cell area: 19%
[1]; hiPSC-CMs cultured in glucose-containing medium (GLUC), 10 μM PE, 48 hours
  effect on cell area: no effect; also recorded: no hypertrophic response
[4]
  effect on myofibril calcium sensitivity: increased myofibril calcium sensitivity
  effect on the kinetics of myofibril activation or relaxation: no effect
[5]
  increase in cell area: 10-30%
[6]
  increase in cell area: 50-100%
[2]; 10 μM PE, 72 hours
  increase in cell area: 16%
[7]; 10 μM PE, 72 hours, mean ± SEM
  Max. tens.: 68.55 ± 6.39 mN/mm^2
  Rest. tens.: 6.94 ± 1.07 mN/mm^2
  kACT: 4.45 ± 0.33 s⁻¹
  kREL, FAST: 36.61 ± 4.59 s⁻¹
  kREL, SLOW: 1.83 ± 0.32 s⁻¹
  kTR: 3.12 ± 0.30 s⁻¹
  tLIN: 45.83 ± 2.58* mSec
[7]; PE vs PBS (Table 6)
  shortening of linear phase of relaxation: ~10 ms
[8]
  cells staining positive for BNP expression: not increased
